Laboratory results reported in patent US11291663B2, “Methods of treating cancer with farnesyltransferase inhibitors” (Kura Oncology, Inc., priority 2017, dated 2022).

Key:
Type in all cases: in vivo, human
[1] = tested on: relapsed/refractory AML; assay: Study AMLCG 1999, AraC based chemotherapy by CXCR4/CXCR2 expression ratio; conditions: relapsed/refractory AML subjects
Description: FIG. 11B. Progression free survival (PFS) probabilities over time (days) for relapsed/refractory AML subjects in study AMLCG 1999 receiving AraC based chemotherapy with relative CXCR4/CXCR2 expression ratios.

[2] = tested on: newly diagnosed elderly patients with poor risk AML; assay: Phase 2 study CTEP-20 of tipifarnib
Experimental: (§1) Clinical studies with tipifarnib were performed in newly diagnosed elderly patients with poor risk AML (CTEP-20, Phase 2) and relapsed and refractory AML (INT-17, Phase 2). Patient selection in these studies was not based on genetic markers. Anecdotal evidence of tipifarnib single agent activity was reported. […] Median OS in the overall study was 107 days for the Tipifarnib group and 109 days for the BSC group in AML301.
FIG. 7. (A) PFS probabilities of previously untreated elderly or unfit AML subjects with a high CXCR4/CXCR2 ratio versus the rest of the patients enrolled in study CTEP-20. Outcome and expression data are available for 34 study subjects. Median survival of subjects with a bone marrow CXCR4/CXCR2 expression ratio in the upper quartile was 406 days versus 67 days in quartiles 1st-3rd, HR=0.44, p=0.09. Median overall PFS was 84 days. (B) Survival probabilities of previously untreated elderly or unfit AML subjects with a high CXCR4/CXCR2 ratio versus the rest of the patients in study CTEP-20. Median survival of subjects with a bone marrow CXCR4/CXCR2 expression ratio in the upper quartile was 728 days versus 179 days in quartiles 1st-3rd, HR=0.26, p=0.07. Median overall survival was 233 days.

[3] = tested on: elderly patients with newly diagnosed, de novo, or secondary AML; assay: Ph3 study AML301, tipifarnib versus BSC
Experimental: as §1
AML patients with low percentage of circulating blood blasts (<1 and <10%) and high percentage of bone marrow blasts (>40%) receive clinical benefit from tipifarnib treatment in terms of progression free survival (PFS, CTEP20) or survival (AML301). […] AML301 patients N=82 (18% of study size), HR=0.58, 109 (BSC) vs 201 (tipifarnib) days, P=0.019.
FIGS. 3A-H show results from a clinical tipifarnib trial for subsets of elderly or frail AML patients (AML-301) with varying degrees of neutropenia. […] FIGS. 3B-3F show survival probabilities in AML patient subsets with WBCs>2.1×10^9 cells/L and ANC<1.2×10^9 cells/L (FIG. 3B), ANC<1.0 (FIG. 3C), ANC<0.8 (FIG. 3D), ANC<0.6 (FIG. 3E) and ANC<0.4 (FIG. 3F).

[4] = tested on: relapsed and refractory AML; assay: Phase 2 study INT-17 of tipifarnib
Experimental: as §1
FIGS. 6A and 6B show graphs illustrating results from a tipifarnib trial with relapsed or refractory AML subjects (INT-17 R/R AML). […] The bone marrow of refractory AML subjects was generally found to express low levels of CXCL12. A small subset of subjects (˜15%) presented high levels of CXCR4, bone marrow homing of tumor cells and sensitivity to tipifarnib. FIG. 6A illustrates relative counts of blood blasts in relapsed or refractory AML patients stratified based on CXCR4 expression levels. […] FIG. 6B illustrates PFS probabilities for relapsed or refractory AML subjects stratified based on CXCR4 expression levels. AML subjects overexpressing CXCR4 (N=8; median PFS=143 days) had better clinical outcomes than AML subjects with relatively lower levels of CXCR4 expression (N=49; median PFS=29 days).
CXCR4/CXCR2 ratio data were available for 57 subjects who experienced an overall survival of 87 days. […]

[5] = tested on: relapsed/refractory CMML; assay: Tipifarnib-treated CMML subjects (study TIP-004); conditions: of 17 CMML subjects with available pre-treatment BM gene expression data
Description: FIG. 10B. Progression free survival (PFS) probabilities over time (days) for relapsed/refractory CMML subjects in study TIP-004 receiving tipifarnib with relative CXCR4/CXCR2 expression ratios. CMML patients having higher CXCR4/CXCR2 expression ratios responded better to tipifarnib treatment than those having lower CXCR4/CXCR2 expression ratios.
(§2) CXCL12 expression alone or as a ratio of the expression to its receptor CXCR4 predicted complete response to tipifarnib treatment (p=0.08, p=0.001) (FIG. 20A). CXCL12 and the CXCL12/CXCR4 ratio also were predictive of 2 partial responses (PR) observed in 13 highly advanced relapsed/refractory PTCL patients with available GEP (p=0.009, p=0.0007) (FIG. 20B). Four objective responses and 1 tumor lysis syndrome were reported in 17 tipifarnib-treated CMML subjects with available pre-treatment BM gene expression data (FIG. 20C). CXCL12 expression (p=0.07) and the CXCL12/CXCR4 ratio (p=0.03) were predictive of those events (FIG. 20C). Only 3 CRs were reported in 58 patients with available BM gene expression data in study INT-17.

[6] = tested on: relapsed/refractory PTCL; assay: Tipifarnib in relapsed/refractory PTCL patients with available GEP; conditions: of 13 highly advanced relapsed/refractory PTCL patients with available GEP
Description: as §2

## Nc1ccn([C@@H]2O[C@H](CO)[C@@H](O)[C@@H]2O)c(=O)n1 [AraC]
[1]
  PFS response of patients with higher versus lower CXCR4/CXCR2 expression ratios: no differently

## Cn1cncc1[C@@](N)(c1ccc(Cl)cc1)c1ccc2c(c1)c(-c1cccc(Cl)c1)cc(=O)n2C [tipifarnib]
[2]; CXCR4/CXCR2 expression ratio quartiles 1st-3rd
  Median survival (PFS panel A): 67 days
[2]; of 34 pts with available BM gene expression data
  best responses of progression of disease (PD), number of patients: 13
[2]; p=0.07
  HR for survival, upper quartile versus quartiles 1st-3rd of CXCR4/CXCR2 ratio: 0.26
[2]; p=0.09
  HR for PFS, upper quartile versus quartiles 1st-3rd of CXCR4/CXCR2 ratio: 0.44
[3]; ANC/WBC<0.3 and marrow blasts >60%, N=110, P=0.08
  hazard ratio, tipifarnib versus reference therapy: 0.67
[3]; ANC/WBC<0.4, WBC>2, platelets >20, N=135, P=0.046
  hazard ratio, tipifarnib versus BSC: 0.7
[3]; no marrow homing subset
  survival probability versus Best Supportive Care: no effect
[3]; subset with bone marrow blasts >40% and peripheral blood blasts <10%, N=82, P=0.019
  HR, tipifarnib versus BSC: 0.58
[4]; of 58 patients with available BM gene expression data
  CRs, number of patients: 3
[4]; p=0.04
  HR, 5th quintile of CXCR4/CXCR2 ratio versus rest of the subjects: 0.52
[5]
  tumor lysis syndrome, number of subjects: 1
[6]
  partial responses (PR), number of patients: 2
